In patent publication US20030166601A1, “Novel colloid synthetic vectors for gene therapy” (priority 1999, published 2003):

What was measured:
cultured cells = test: Transfection of cultured cells, luciferase activity; format: cell-based
Excerpt: The gene delivery ability of substituted aminoethanols with long chain hydrocarbon (aliphatic) substitutients was studied by transfection of cultured cells and then in vivo by intravenous injection (Table 2 and 3). The substituted aminoethanols have two hydrophilic polar heads connected with one hydrophobic body, which was named bihead lipids. Bihead lipids are proposed to form a monolayer membrane.

CD-1 mice = test: Luciferase expression in organs after intravenous injection of pCILuc complexes; format: in vivo; conditions: for Luciferase RLU/20 ul lysate heart / Luciferase RLU/20 ul lysate kidney / Luciferase RLU/20 ul lysate liver / Luciferase RLU/20 ul lysate lung / Luciferase RLU/20 ul lysate spleen / Luciferase RLU/20 μl lysate heart / Luciferase RLU/20 μl lysate kidney / Luciferase RLU/20 μl lysate liver / Luciferase RLU/20 μl lysate lung / Luciferase RLU/20 μl lysate spleen: 40 μg pCILuc i.v., 5 h
Protocol: Substituted aminoethanols (cationic compounds) were prepared as described in Examples 1-34. Their gene delivery ability was studied in vivo by intravenous injection (Table 1 and 2) using a standard method. The preparations were administered via tail vein injection to mice and gene expression determined after 5 hours. Female CD-1 mice, 13-15 g, were purchased from Charles River Inc. Forty microgram of pCILuc complexed with GC lipids or GC lipid:Chol dispersion as indicated weight ratios. After 5 h, mice were sacrificed and organs were collected. Organs were homogenized in 0.5 ml of lysis buffer and 20 μl of supernatant was used for luciferase assay. Luciferase activity was represented as a mean of relative light unit (RLU) of four mice. The lipids were either used alone or combined with cholesterol and complexed with a luciferase reporter gene plasmid by a standard procedure at a range of weight and charge ratios. For the in vivo screen, 40 μg of pCILuc was complexed with the formulation and injected into the mice.
All compounds were evaluated for in vivo activity. Two critical factors were examined, formulation with or without cholesterol and the ratio of cationic lipid to DNA. Cholesterol was tested at 1:1 mole ratio of lipid:chol. The studies were performed with a dose of 40 μg of pCILuc complexed with cationic lipid or lipid: Chol (1:1 mole ratio) injected i.v. into CD-1 mice and then luciferase activity in different organs determined 5 h later. The first evaluation included all of 14 GC-lipids at weight ratios of 2 and 10 (GC lipid to DNA). It was performed by four separated experiments. Each time cationic liposome DOTAP:Chol was used as a standard control.
Measurements were repeated with lipids GC-030, GC-034 and GC-029 at wider weight ratios than the first experiment. Luciferase activity is represented as a mean of relative light unit (RLU) of four mice. WR means weight ratio of GC lipids to DNA. The transfection activity was represented by luciferase activity RLU/organ. […] The transfection activity increased with the increased weight ratio (GC lipids to DNA). Inclusion of cholesterol can change the biodistribution of gene expression in the different organs examined. […] However this function of cholesterol was not seen with GC-034.

CCCCCCCCCCCCCCC(O)CN(CCCN)CCCCCCCCCCCCCN(CCCN)CC(O)CCCCCCCCCCCCCC (stereo not drawn) [CGP44015A]
Luciferase activity Ave. RLU × 10000/well FBS(+) (cultured cells; charge ratio (+/−) 0.5): 130 RLU × 10000/well | Luciferase activity Ave. RLU × 10000/well FBS(−) (cultured cells; charge ratio (+/−) 0.5): 159 RLU × 10000/well | Luciferase activity Ave. RLU × 10000/well FBS(+) (cultured cells; charge ratio (+/−) 1): 3,373 RLU × 10000/well | Luciferase activity Ave. RLU × 10000/well FBS(−) (cultured cells; charge ratio (+/−) 1): 3,252 RLU × 10000/well | Luciferase activity Ave. RLU × 10000/well FBS(+) (cultured cells; charge ratio (+/−) 2): 17,315 RLU × 10000/well | Luciferase activity Ave. RLU × 10000/well FBS(−) (cultured cells; charge ratio (+/−) 2): 17,063 RLU × 10000/well | Luciferase activity Ave. RLU × 10000/well FBS(+) (cultured cells; charge ratio (+/−) 4): 25,732 RLU × 10000/well | Luciferase activity Ave. RLU × 10000/well FBS(−) (cultured cells; charge ratio (+/−) 4): 24,484 RLU × 10000/well | Luciferase activity Ave. RLU × 10000/well FBS(+) (cultured cells; charge ratio (+/−) 6): 27,844 RLU × 10000/well | Luciferase activity Ave. RLU × 10000/well FBS(−) (cultured cells; charge ratio (+/−) 6): 24,089 RLU × 10000/well | Luciferase activity Ave. RLU × 10000/well FBS(+) (cultured cells; charge ratio (+/−) 8): 27,298 RLU × 10000/well | Luciferase activity Ave. RLU × 10000/well FBS(−) (cultured cells; charge ratio (+/−) 8): 24,150 RLU × 10000/well | Luciferase RLU/20 ul lysate heart (CD-1 mice; CR 0.5): 74 RLU/20 ul lysate | Luciferase RLU/20 ul lysate kidney (CD-1 mice; CR 0.5): 72 RLU/20 ul lysate | Luciferase RLU/20 ul lysate liver (CD-1 mice; CR 0.5): 86 RLU/20 ul lysate | Luciferase RLU/20 ul lysate lung (CD-1 mice; CR 0.5): 82 RLU/20 ul lysate | Luciferase RLU/20 ul lysate spleen (CD-1 mice; CR 0.5): 80 RLU/20 ul lysate | Luciferase RLU/20 ul lysate heart (CD-1 mice; CR 1): 73 RLU/20 ul lysate | Luciferase RLU/20 ul lysate kidney (CD-1 mice; CR 1): 71 RLU/20 ul lysate | Luciferase RLU/20 ul lysate liver (CD-1 mice; CR 1): 219 RLU/20 ul lysate | Luciferase RLU/20 ul lysate lung (CD-1 mice; CR 1): 95 RLU/20 ul lysate | Luciferase RLU/20 ul lysate spleen (CD-1 mice; CR 1): 168 RLU/20 ul lysate | Luciferase RLU/20 ul lysate heart (CD-1 mice; CR 4): 379 RLU/20 ul lysate | Luciferase RLU/20 ul lysate kidney (CD-1 mice; CR 4): 528 RLU/20 ul lysate | Luciferase RLU/20 ul lysate liver (CD-1 mice; CR 4): 3,817 RLU/20 ul lysate | Luciferase RLU/20 ul lysate lung (CD-1 mice; CR 4): 19,717 RLU/20 ul lysate | Luciferase RLU/20 ul lysate spleen (CD-1 mice; CR 4): 4,778 RLU/20 ul lysate | Luciferase RLU/20 ul lysate heart (CD-1 mice; CR 10): 103 RLU/20 ul lysate | Luciferase RLU/20 ul lysate kidney (CD-1 mice; CR 10): 281 RLU/20 ul lysate | Luciferase RLU/20 ul lysate liver (CD-1 mice; CR 10): 1,283 RLU/20 ul lysate | Luciferase RLU/20 ul lysate lung (CD-1 mice; CR 10): 4,470 RLU/20 ul lysate | Luciferase RLU/20 ul lysate spleen (CD-1 mice; CR 10): 4,108 RLU/20 ul lysate | Luciferase RLU/20 ul lysate heart (CD-1 mice; CR 20): 75 RLU/20 ul lysate | Luciferase RLU/20 ul lysate kidney (CD-1 mice; CR 20): 70 RLU/20 ul lysate | Luciferase RLU/20 ul lysate liver (CD-1 mice; CR 20): 243 RLU/20 ul lysate | Luciferase RLU/20 ul lysate lung (CD-1 mice; CR 20): 84 RLU/20 ul lysate | Luciferase RLU/20 ul lysate spleen (CD-1 mice; CR 20): 69 RLU/20 ul lysate | expression in vivo by core complexes (CD-1 mice; mouse, in vivo): exhibit expression in vivo

CCCCCCCCCCCCCCC(O)CN(CCN)CCCCCCCCNCCCN (stereo not drawn) [CGP44207A]
Luciferase activity Ave. RLU × 10000/well FBS(+) (cultured cells; charge ratio (+/−) 0.5): 12 RLU × 10000/well | Luciferase activity Ave. RLU × 10000/well FBS(−) (cultured cells; charge ratio (+/−) 0.5): 12 RLU × 10000/well | Luciferase activity Ave. RLU × 10000/well FBS(+) (cultured cells; charge ratio (+/−) 1): 9 RLU × 10000/well | Luciferase activity Ave. RLU × 10000/well FBS(−) (cultured cells; charge ratio (+/−) 1): 11 RLU × 10000/well | Luciferase activity Ave. RLU × 10000/well FBS(+) (cultured cells; charge ratio (+/−) 2): 12 RLU × 10000/well | Luciferase activity Ave. RLU × 10000/well FBS(−) (cultured cells; charge ratio (+/−) 2): 15 RLU × 10000/well | Luciferase activity Ave. RLU × 10000/well FBS(+) (cultured cells; charge ratio (+/−) 4): 22 RLU × 10000/well | Luciferase activity Ave. RLU × 10000/well FBS(−) (cultured cells; charge ratio (+/−) 4): 28 RLU × 10000/well | Luciferase activity Ave. RLU × 10000/well FBS(+) (cultured cells; charge ratio (+/−) 6): 15 RLU × 10000/well | Luciferase activity Ave. RLU × 10000/well FBS(−) (cultured cells; charge ratio (+/−) 6): 22 RLU × 10000/well | Luciferase activity Ave. RLU × 10000/well FBS(+) (cultured cells; charge ratio (+/−) 8): 13 RLU × 10000/well | Luciferase activity Ave. RLU × 10000/well FBS(−) (cultured cells; charge ratio (+/−) 8): 17 RLU × 10000/well

CCCCCCCCCCCCCCCCCCN(CCCCCCCCCCCCCCCCCC)C(=O)CNC(=O)[C@@H](N)CCCN.O=C(O)C(F)(F)F.O=C(O)C(F)(F)F [GC-035]
Luciferase RLU/20 μl lysate heart (CD-1 mice; WR 2): 54 RLU/20 μl lysate | Luciferase RLU/20 μl lysate kidney (CD-1 mice; WR 2): 46 RLU/20 μl lysate | Luciferase RLU/20 μl lysate liver (CD-1 mice; WR 2): 57 RLU/20 μl lysate | Luciferase RLU/20 μl lysate lung (CD-1 mice; WR 2): 57 RLU/20 μl lysate | Luciferase RLU/20 μl lysate heart (CD-1 mice; WR 10): 51 RLU/20 μl lysate | Luciferase RLU/20 μl lysate kidney (CD-1 mice; WR 10): 54 RLU/20 μl lysate | Luciferase RLU/20 μl lysate liver (CD-1 mice; WR 10): 50 RLU/20 μl lysate | Luciferase RLU/20 μl lysate lung (CD-1 mice; WR 10): 54 RLU/20 μl lysate | Luciferase RLU/20 μl lysate spleen (CD-1 mice; WR 10): 54 RLU/20 μl lysate | Luciferase RLU/20 μl lysate spleen (CD-1 mice; WR (lipid to DNA) 2): 70 RLU/20 μl lysate

CCCCCCCCCCCCCCCCCCN(CCCCCCCCCCCCCCCCCC)C(=O)CC[C@H](NC(=O)[C@H](CCCNCCCN)NCCCN)C(=O)O.O=C(O)C(F)(F)F.O=C(O)C(F)(F)F.O=C(O)C(F)(F)F.O=C(O)C(F)(F)F [GC-033]
Luciferase RLU/20 μl lysate heart (CD-1 mice; WR 2): 31 RLU/20 μl lysate | Luciferase RLU/20 μl lysate kidney (CD-1 mice; WR 2): 27 RLU/20 μl lysate | Luciferase RLU/20 μl lysate liver (CD-1 mice; WR 2): 29 RLU/20 μl lysate | Luciferase RLU/20 μl lysate lung (CD-1 mice; WR 2): 36 RLU/20 μl lysate | Luciferase RLU/20 μl lysate heart (CD-1 mice; WR 10): 40 RLU/20 μl lysate | Luciferase RLU/20 μl lysate kidney (CD-1 mice; WR 10): 41 RLU/20 μl lysate | Luciferase RLU/20 μl lysate liver (CD-1 mice; WR 10): 46 RLU/20 μl lysate | Luciferase RLU/20 μl lysate lung (CD-1 mice; WR 10): 42 RLU/20 μl lysate | Luciferase RLU/20 μl lysate spleen (CD-1 mice; WR 10): 50 RLU/20 μl lysate | Luciferase RLU/20 μl lysate spleen (CD-1 mice; WR (lipid to DNA) 2): 27 RLU/20 μl lysate

CCCCCCCCCCCCCCCCCC(CCCCCCCCCCCCCCCCC)NC(=O)CNC(=O)CNC(=O)[C@@H](N)CCCN.O=C(O)C(F)(F)F.O=C(O)C(F)(F)F [GC-039]
Luciferase RLU/20 μl lysate heart (CD-1 mice; WR 2): 50 RLU/20 μl lysate | Luciferase RLU/20 μl lysate kidney (CD-1 mice; WR 2): 45 RLU/20 μl lysate | Luciferase RLU/20 μl lysate liver (CD-1 mice; WR 2): 48 RLU/20 μl lysate | Luciferase RLU/20 μl lysate lung (CD-1 mice; WR 2): 52 RLU/20 μl lysate | Luciferase RLU/20 μl lysate heart (CD-1 mice; WR 10): 45 RLU/20 μl lysate | Luciferase RLU/20 μl lysate kidney (CD-1 mice; WR 10): 54 RLU/20 μl lysate | Luciferase RLU/20 μl lysate liver (CD-1 mice; WR 10): 212 RLU/20 μl lysate | Luciferase RLU/20 μl lysate lung (CD-1 mice; WR 10): 753 RLU/20 μl lysate | Luciferase RLU/20 μl lysate spleen (CD-1 mice; WR 10): 845 RLU/20 μl lysate | Luciferase RLU/20 μl lysate spleen (CD-1 mice; WR (lipid to DNA) 2): 288 RLU/20 μl lysate

CCCCCCCCCCCCCCCCCCN(CCCCCCCCCCCCCCCCCC)C(=O)[C@H](CSSC[C@H](NC(=O)[C@@H](N)CCCN)C(=O)N(CCCCCCCCCCCCCCCCCC)CCCCCCCCCCCCCCCCCC)NC(=O)[C@@H](N)CCCN.O=C(O)C(F)(F)F.O=C(O)C(F)(F)F.O=C(O)C(F)(F)F.O=C(O)C(F)(F)F [GC-025]
Luciferase RLU/20 μl lysate heart (CD-1 mice; WR 2): 33 RLU/20 μl lysate | Luciferase RLU/20 μl lysate kidney (CD-1 mice; WR 2): 25 RLU/20 μl lysate | Luciferase RLU/20 μl lysate liver (CD-1 mice; WR 2): 38 RLU/20 μl lysate | Luciferase RLU/20 μl lysate lung (CD-1 mice; WR 2): 40 RLU/20 μl lysate | Luciferase RLU/20 μl lysate heart (CD-1 mice; WR 10): 27 RLU/20 μl lysate | Luciferase RLU/20 μl lysate kidney (CD-1 mice; WR 10): 28 RLU/20 μl lysate | Luciferase RLU/20 μl lysate liver (CD-1 mice; WR 10): 27 RLU/20 μl lysate | Luciferase RLU/20 μl lysate lung (CD-1 mice; WR 10): 30 RLU/20 μl lysate | Luciferase RLU/20 μl lysate spleen (CD-1 mice; WR 10): 32 RLU/20 μl lysate | Luciferase RLU/20 μl lysate spleen (CD-1 mice; WR (lipid to DNA) 2): 46 RLU/20 μl lysate
